Reference: ChEMBL document CHEMBL1136066, “Non-covalent thrombin inhibitors featuring P(3)-heterocycles with P(1)-monocyclic arginine surrogates” (Bioorg Med Chem Lett, 2002)

Tests used:
Coagulation factor X [1] = target: T1, Coagulation factor X (Homo sapiens, UniProt P00742)
Prothrombin = Prothrombin (Homo sapiens, UniProt P00734); experiment: In vitro inhibitory constant against human thrombin (FIIa).
Serine protease 1 [2] = target: T2, Serine protease 1 (Homo sapiens, UniProt P07477)
Serine protease 1 [3] = target: T2, Serine protease 1; remark: listed apart in the source
Coagulation factor X [4] = target: T1, Coagulation factor X; remark: listed apart in the source

T1 sequence (P00742 41-179 limits assumed): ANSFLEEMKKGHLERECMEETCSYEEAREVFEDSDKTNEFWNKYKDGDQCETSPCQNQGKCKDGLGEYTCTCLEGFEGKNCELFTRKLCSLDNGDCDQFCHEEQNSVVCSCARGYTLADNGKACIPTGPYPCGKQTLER
T1 sequence (P00742 235-488 limits assumed): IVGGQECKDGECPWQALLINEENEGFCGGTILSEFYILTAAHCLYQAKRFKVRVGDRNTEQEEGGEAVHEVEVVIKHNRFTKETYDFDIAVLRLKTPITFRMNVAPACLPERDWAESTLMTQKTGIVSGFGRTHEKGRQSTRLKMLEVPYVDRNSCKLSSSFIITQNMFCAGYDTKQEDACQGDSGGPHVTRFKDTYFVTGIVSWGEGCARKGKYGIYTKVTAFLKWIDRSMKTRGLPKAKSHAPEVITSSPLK
T2 sequence (P07477 whole entry): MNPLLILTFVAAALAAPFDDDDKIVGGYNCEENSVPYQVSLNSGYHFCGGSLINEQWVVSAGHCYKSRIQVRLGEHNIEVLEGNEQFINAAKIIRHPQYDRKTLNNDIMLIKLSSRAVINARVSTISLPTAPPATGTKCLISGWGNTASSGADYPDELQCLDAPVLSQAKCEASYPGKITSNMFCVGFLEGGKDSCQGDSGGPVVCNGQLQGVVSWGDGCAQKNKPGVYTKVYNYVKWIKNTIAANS

SMILES	Ki (Coagulation factor X [1])	Ki (Prothrombin)	Ki (Serine protease 1 [2])	Ki (Serine protease 1 [3])	Ki (Coagulation factor X [4])
Cc1cnc(NCC(F)(F)c2ccc(F)cc2)c(=O)n1CC(=O)NCc1cnc(N)cn1	Not Active	5.9 nM	Not Active		
Cc1cnc(NCCc2ccccc2)c(=O)n1CC(=O)NCc1cnc(N)nc1	Not Active	357 nM	Not Active		
Cc1nc(N)ncc1CNC(=O)Cn1c(C)ccc(NS(=O)(=O)Cc2cccc3c2OCCO3)c1=O	Not Active		Not Active		
COc1cccc(S(=O)(=O)Nc2cccn(CC(=O)NCc3nc(C(=N)N)cs3)c2=O)c1		5.9 nM		> 168 nM	179 nM
Cc1nc(N)ccc1CNC(=O)Cn1c(C)ccc(NS(=O)(=O)Cc2ccccc2)c1=O [L-374087]		0.68 nM	Not Active		
Cc1cnc(NCCc2ccccc2)c(=O)n1CC(=O)NCc1ccc(C(=N)N)cc1	Not Active			19.7 nM	
Cc1ccc(NS(=O)(=O)Cc2ccccc2)c(=O)n1CC(=O)NCc1cnc(N)cn1	Not Active	158 nM	Not Active		
Cc1cnc(NCCc2ccccc2)c(=O)n1CC(=O)NCc1cnc(N)cn1	Not Active		Not Active		
Cc1ccc(NS(=O)(=O)Cc2ccccc2)c(=O)n1CC(=O)NC[C@@H]1CNC(N)=N[C@@H]1C	Not Active	1.1 nM	Not Active		
COc1cccc(S(=O)(=O)Nc2cccn(CC(=O)NCc3ccc(C(=N)N)cc3F)c2=O)c1		6 nM		31.3 nM	249 nM
Cc1nc(N)ncc1CNC(=O)Cn1c(C)cnc(NCC(F)(F)c2ccccc2)c1=O	Not Active	141 nM	Not Active		
Cc1cnc(NCCc2ccccc2)c(=O)n1CC(=O)NCC1CN=C(N)NC1 (stereo unspecified)	Not Active	1.9 nM	Not Active		
Cc1cnc(NCC2(c3ccc(Cl)cc3)CCC2)c(=O)n1CC(=O)NCc1cnc(N)cn1	Not Active	5.5 nM	Not Active		
Cc1ccc(NS(=O)(=O)Cc2ccccc2)c(=O)n1CC(=O)NCc1ccc(C(=N)N)s1		0.1 nM		13.6 nM	96.4 nM
Cc1cnc(NCC(F)(F)c2ccccc2)c(=O)n1CC(=O)NCc1cnc(N)cn1	Not Active	9.8 nM	Not Active		
Cc1cnc(NCCc2ccccc2)c(=O)n1CC(=O)NCc1ccc(C(=N)NO)s1	Not Active	30.8 nM	Not Active		
Cc1ccc(NS(=O)(=O)Cc2ccccc2F)c(=O)n1CC(=O)N[C@H](CCCNC(=N)N)C(=O)O [CVS-2359]		0.14 nM		12.4 nM	674 nM

SMILES	Ki (Coagulation factor X [1])	Ki (Prothrombin)	Ki (Serine protease 1 [2])	Ki (Serine protease 1 [3])	Ki (Coagulation factor X [4])
Cc1ccc(NS(=O)(=O)Cc2ccccc2)c(=O)n1CC(=O)NCC1CN=C(N)NC1 (stereo unspecified)	Not Active	1 nM	Not Active		
Cc1nc(N)nc(C)c1CNC(=O)Cn1c(C)ccc(NS(=O)(=O)Cc2ccccc2)c1=O	Not Active	281 nM	Not Active		
Cc1cnc(NCCc2ccccc2)c(=O)n1CC(=O)NCc1ccc(C(=N)NO[Si](C)(C)C(C)(C)C)s1	Not Active	13.2 nM	Not Active		
Cc1cnc(NCCc2ccccc2)c(=O)n1CC(=O)NCc1ccc(C(=N)N)s1	Not Active	0.12 nM		4.4 nM	
Cc1ccc(NS(=O)(=O)Cc2ccccc2)c(=O)n1CC(=O)NCc1ccc(C(=N)N)cc1	Not Active	0.37 nM		49.3 nM	
Cc1nc(N)ccc1CNC(=O)Cn1c(C)cnc(NCCc2ccccc2)c1=O [L-375378]		1 nM	Not Active		
Cc1cnc(NCCc2ccccc2)c(=O)n1CC(=O)NC[C@@H]1CNC(N)=N[C@@H]1C	Not Active	3.2 nM	Not Active		
Cc1ccc(NS(=O)(=O)Cc2ccccc2)c(=O)n1CC(=O)NCc1nc(CN)cs1		136 nM		> 168 nM	> 338 nM
Cc1nc(N)ncc1CNC(=O)Cn1c(C)cnc(NCCc2ccccc2)c1=O	Not Active	197 nM	Not Active		
Cc1ccc(NS(=O)(=O)Cc2ccccc2)c(=O)n1CC(=O)NCc1cnc(N)nc1	Not Active	462 nM	Not Active		
Cc1nc(N)ncc1CNC(=O)Cn1c(C)cnc(NCCc2ccc3c(c2)CCO3)c1=O	Not Active	324 nM	Not Active		
COc1cccc(S(=O)(=O)Nc2cccn(CC(=O)NCc3ccc(C(=N)N)cc3)c2=O)c1		5.3 nM		18.7 nM	153 nM
COc1cccc(S(=O)(=O)Nc2cccn(CC(=O)NCc3ccc(C(=N)N)cc3OC)c2=O)c1		1.6 nM		11.9 nM	76.8 nM
Cc1nc(N)ncc1CNC(=O)Cn1c(C)ccc(NS(=O)(=O)Cc2ccccc2)c1=O	Not Active	85.2 nM	Not Active		
COC(=O)c1ccc(F)cc1CS(=O)(=O)Nc1ccc(C)n(CC(=O)N[C@H](CCCN=C(N)N)C(=O)O)c1=O		0.1 nM		16.6 nM	1810 nM
Cc1ccc(NS(=O)(=O)Cc2ccccc2)c(=O)n1CC(=O)NCc1ccc(C(=N)N)c(F)c1	Not Active	3.6 nM	Not Active		
COc1cccc(S(=O)(=O)Nc2cccn(CC(=O)NCc3ccc(C(=N)N)cc3Cl)c2=O)c1		20.8 nM		76.5 nM	
